Measurements taken from US6534448B1, “Composition and method for acidizing wells and equipment without damaging precipitation” (Halliburton Energy Services, Inc., priority 2000, dated 2003).

Key:
[1] = test system: marine copepod Arcatia tonsa; test: Static 48 hour toxicity test on marine copepod (draft ISO 14669:1999(E)); type: in vivo; settings: test range 200.0 to 2000.0 mg l-1
Method: Test concentrations of sodium molybdate crystalline were prepared over the range 200.0 mg 1^−1 to 2000.0 mg 1^−1.

[2] = Amounts of electron transfer agents needed to reduce 2500 ppm ferric ion in less than five minutes (Example III); settings: 15 lbs./Mgal Na2MoO4 in 15% HCl, room temperature
Method: The above concentrations were arrived at from room temperature experiments.
Next, tests were conducted to determine the optimum amounts of the electron transfer agent(s) that should be employed in the inventive acidizing composition. Each test fluid included 1% by volume thioglycolic acid, based on the total volume of the acid solution and was contaminated with 2500 ppm ferric ion (by adding a sufficient amount of ferric chloride to the fluid).
These fluids also included the primary electron transfer agent, either sodium molybdate or ammonium molybdate. The amount the molybdate utilized was varied.
These fluids also included the primary electron transfer agent, either sodium molybdate or ammonium molybdate, and the supplemental electron transfer agent (potassium iodide). The amounts of the molybdate and potassium iodide utilized were varied.
The tests were carried out at room temperature. The test fluids were contaminated with 2500 ppm of ferric ion by adding a corresponding amount of iron chloride (FeCl3.H2O) thereto.
It was determined that a complete reduction had taken place when the test fluids changed back to the red-brown color.
It was determined that a complete reduction had taken place when the test fluids changed back to the emerald green color (verified by UV-VIS experiments).

[3] = in vivo

SMILES	24 hour EC50 (concentration which immobilized 50% of the copepods) ([1]; 24 hours) [µg/mL]	48 hour EC50 (concentration which immobilized 50% of the copepods) ([1]; 48 hours) [µg/mL]	time required for reduction of 2500 ppm Fe(III) to Fe(II) [2] [min]	concentration found to be toxic [3] [ng/mL]
[Na+].[Na+].[O]=[Mo](=[O])([O-])[O-] [sodium molybdate crystalline, sodium molybdate]	> 2000.0	> 2000.0	2 to 3	
[Cl][Cu] [cuprous chloride]				≥ 10
